In patent EP0993459B1, “COMPOUNDS USEFUL FOR INHIBITION OF FARNESYL PROTEIN TRANSFERASE” (SCHERING CORPORATION, priority 1997, dated 1998):

test system: COS Cell; test: COS Cell IC50, cell-based assay (procedure of WO 95/10516); settings: not given
Experimental: (§1) FPT IC50 (inhibition of farnesyl protein transferase, in vitro enzyme assay) and COS Cell IC50 (Cell-Based Assay) were determined following the assay procedures described in WO 95/10516, published April 20, 1995. GGPT IC50 (inhibition of geranylgeranyl protein transferase, in vitro enzyme assay), Cell Mat Assay, and anti-tumor activity (in vivo anti-tumor studies) could be determined by the assay procedures described in WO 95/10516. The disclosure of WO 95/10516 is incorporated herein by reference thereto.

| Compound | IC50 [nM] |
| --- | --- |
| CC(=O)O[C@H]1CC[C@@H](C(=O)N2CCC([C@H]3c4ncc(Br)cc4CCc4cc(Cl)cc(Br)c43)CC2)CC1 [Compound 69.0] | 30 |

target: farnesyl protein transferase (Homo sapiens, UniProt P49354+P49356); test: FPT IC50, inhibition of farnesyl protein transferase, in vitro enzyme assay (procedure of WO 95/10516); format: biochemical; settings: one range stated for the whole group of listed compounds, no individual values
Experimental: as §1

Sequence of farnesyl protein transferase (P49356 whole entry, one chain of several): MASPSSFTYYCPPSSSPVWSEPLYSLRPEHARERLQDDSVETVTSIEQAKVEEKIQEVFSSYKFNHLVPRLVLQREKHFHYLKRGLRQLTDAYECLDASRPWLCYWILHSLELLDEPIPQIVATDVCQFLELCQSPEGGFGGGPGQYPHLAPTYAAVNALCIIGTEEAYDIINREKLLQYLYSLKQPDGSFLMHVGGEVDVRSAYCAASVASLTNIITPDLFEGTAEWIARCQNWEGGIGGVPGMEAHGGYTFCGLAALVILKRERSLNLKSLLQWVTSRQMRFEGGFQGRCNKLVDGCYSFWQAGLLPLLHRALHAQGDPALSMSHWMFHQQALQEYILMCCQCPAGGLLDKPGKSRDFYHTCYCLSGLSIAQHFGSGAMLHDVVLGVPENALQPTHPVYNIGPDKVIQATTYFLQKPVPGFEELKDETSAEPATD

| IC50 [nM] | Compound |
| --- | --- |
| ≥ 1.9 | COc1ccc2c(c1)CC(CC(=O)N1CCC([C@H]3c4ncc(Br)cc4CCc4cc(Cl)cc(Br)c43)CC1)C2=O (single isomer, unassigned) [Compound 17.0A] |
| ≥ 1.9 | O=C1CCC(CC(=O)N2CCC([C@H]3c4ncc(Br)cc4CCc4cc(Cl)cc(Br)c43)CC2)CC1 [Compound 13.0] |
| ≥ 1.9 | O=C1CCN(CC(=O)N2CCC([C@H]3c4ncc(Br)cc4CCc4cc(Cl)cc(Br)c43)CC2)CC1 [Compound 14.0] |
| ≥ 1.9 | O=C1CCC(=CC(=O)N2CCC([C@H]3c4ncc(Br)cc4CCc4cc(Cl)cc(Br)c43)CC2)CC1 [Compound 16.0] |
| ≥ 1.9 | O=C1CCCCC1CC(=O)N1CCC([C@H]2c3ncc(Br)cc3CCc3cc(Cl)cc(Br)c32)CC1 (some centres unmarked) [Compound 18.0] |
| ≥ 1.9 | O=C1CCCCC1CCC(=O)N1CCC([C@H]2c3ncc(Br)cc3CCc3cc(Cl)cc(Br)c32)CC1 (some centres unmarked) [Compound 19.0] |
| ≥ 1.9 | C[C@]1(CCC(=O)N2CCC([C@H]3c4ncc(Br)cc4CCc4cc(Cl)cc(Br)c43)CC2)CCCCC1=O [Compound 20.0] |
| ≥ 1.9 | O=C(C=C1CCC2(CC1)OCCO2)N1CCC([C@H]2c3ncc(Br)cc3CCc3cc(Cl)cc(Br)c32)CC1 [Compound 21.0] |
| ≥ 1.9 | O=C(CC1CCC2(CC1)OCCO2)N1CCC([C@H]2c3ncc(Br)cc3CCc3cc(Cl)cc(Br)c32)CC1 [Compound 22.0] |
| ≥ 1.9 | O=C(CC1CCC(=NO)CC1)N1CCC([C@H]2c3ncc(Br)cc3CCc3cc(Cl)cc(Br)c32)CC1 (some centres unmarked) [Compound 23.0] |
| ≥ 1.9 | O=C(CN1CCC2(CC1)OCCO2)N1CCC([C@H]2c3ncc(Br)cc3CCc3cc(Cl)cc(Br)c32)CC1 [Compound 24.0] |
| ≥ 1.9 | CON=C1CCC(CC(=O)N2CCC([C@H]3c4ncc(Br)cc4CCc4cc(Cl)cc(Br)c43)CC2)CC1 (some centres unmarked) [Compound 25.0] |
| ≥ 1.9 | O=C(CN1CCC(=NO)CC1)N1CCC([C@H]2c3ncc(Br)cc3CCc3cc(Cl)cc(Br)c32)CC1 [Compound 26.0] |
| ≥ 1.9 | CON=C1CCN(CC(=O)N2CCC([C@H]3c4ncc(Br)cc4CCc4cc(Cl)cc(Br)c43)CC2)CC1 [Compound 27.0] |
| ≥ 1.9 | O=C(CN1CCC2(CC1)SCCS2)N1CCC([C@H]2c3ncc(Br)cc3CCc3cc(Cl)cc(Br)c32)CC1 [Compound 28.0] |
| ≥ 1.9 | NC(=O)NN=C1CCC(CC(=O)N2CCC([C@H]3c4ncc(Br)cc4CCc4cc(Cl)cc(Br)c43)CC2)CC1 (some centres unmarked) [Compound 29.0] |
| ≥ 1.9 | CC(=O)NN=C1CCC(CC(=O)N2CCC([C@H]3c4ncc(Br)cc4CCc4cc(Cl)cc(Br)c43)CC2)CC1 (some centres unmarked) [Compound 30.0] |

| IC50 [nM] | Compound |
| --- | --- |
| ≥ 1.9 | O=C(O)CON=C1CCC(CC(=O)N2CCC([C@H]3c4ncc(Br)cc4CCc4cc(Cl)cc(Br)c43)CC2)CC1 (some centres unmarked) [Compound 31.0] |
| ≥ 1.9 | CC(C)(C)[Si](C)(C)OCCON=C1CCC(CC(=O)N2CCC([C@H]3c4ncc(Br)cc4CCc4cc(Cl)cc(Br)c43)CC2)CC1 (some centres unmarked) [Compound 32.0] |
| ≥ 1.9 | O=C1CCC(C(=O)N2CCC([C@H]3c4ncc(Br)cc4CCc4cc(Cl)cc(Br)c43)CC2)CC1 [Compound 33.0] |
| ≥ 1.9 | O=C(C1CCC2(CC1)OCCO2)N1CCC([C@H]2c3ncc(Br)cc3CCc3cc(Cl)cc(Br)c32)CC1 [Compound 34.0] |
| ≥ 1.9 | CON=C1CCC(C(=O)N2CCC([C@H]3c4ncc(Br)cc4CCc4cc(Cl)cc(Br)c43)CC2)CC1 (some centres unmarked) [Compound 35.0] |
| ≥ 1.9 | CC(C)(C)OC(=O)N[C@H]1CC[C@@H](C(=O)N2CCC([C@H]3c4ncc(Br)cc4CCc4cc(Cl)cc(Br)c43)CC2)CC1 [Compound 36.0] |
| ≥ 1.9 | N[C@H]1CC[C@@H](C(=O)N2CCC([C@H]3c4ncc(Br)cc4CCc4cc(Cl)cc(Br)c43)CC2)CC1 [Compound 37.0] |
| ≥ 1.9 | NC(=O)N[C@H]1CC[C@@H](C(=O)N2CCC([C@H]3c4ncc(Br)cc4CCc4cc(Cl)cc(Br)c43)CC2)CC1 [Compound 38.0] |
| ≥ 1.9 | CCOC(=O)C(=O)N[C@H]1CC[C@@H](C(=O)N2CCC([C@H]3c4ncc(Br)cc4CCc4cc(Cl)cc(Br)c43)CC2)CC1 [Compound 39.0] |
| ≥ 1.9 | CS(=O)(=O)N[C@H]1CC[C@@H](C(=O)N2CCC([C@H]3c4ncc(Br)cc4CCc4cc(Cl)cc(Br)c43)CC2)CC1 [Compound 40.0] |
| ≥ 1.9 | CC(C)(C)OC(=O)NC1CCCC(C(=O)N2CCC([C@H]3c4ncc(Br)cc4CCc4cc(Cl)cc(Br)c43)CC2)C1 (some centres unmarked) [Compound 43.0] |
| ≥ 1.9 | NC1CCCC(C(=O)N2CCC([C@H]3c4ncc(Br)cc4CCc4cc(Cl)cc(Br)c43)CC2)C1 (some centres unmarked) [Compound 44.0] |
| ≥ 1.9 | NC(=O)NC1CCCC(C(=O)N2CCC([C@H]3c4ncc(Br)cc4CCc4cc(Cl)cc(Br)c43)CC2)C1 (some centres unmarked) [Compound 45.0] |
| ≥ 1.9 | CCOC(=O)C(=O)NC1CCCC(C(=O)N2CCC([C@H]3c4ncc(Br)cc4CCc4cc(Cl)cc(Br)c43)CC2)C1 (some centres unmarked) [Compound 46.0] |
| ≥ 1.9 | NC(=O)C(=O)NC1CCCC(C(=O)N2CCC([C@H]3c4ncc(Br)cc4CCc4cc(Cl)cc(Br)c43)CC2)C1 (some centres unmarked) [Compound 49.1] |
| ≥ 1.9 | O=C([C@H]1CC[C@H](O)CC1)N1CCC([C@H]2c3ncc(Br)cc3CCc3cc(Cl)cc(Br)c32)CC1 [Compound 68.0] |
| ≥ 1.9 | O=C([C@H]1CC[C@@H](O)CC1)N1CCC([C@H]2c3ncc(Br)cc3CCc3cc(Cl)cc(Br)c32)CC1 [Compound 70.0] |
